Measured values taken from ChEMBL document CHEMBL1759870, “Identification, structural properties and chelating capacity of miltipolone as a broad-spectrum inhibitor to cancer cells” (Eur J Med Chem, 2011).
The source made the active and inactive calls. The calls are words filed in the database; no cut-off is given here.

Legend:
HT-1080 [1] = assay: Antiproliferative activity against human HT1080 cells at 2 uM after 96 hrs by MTT assay in presence of ferric ion; assay type: functional, cell-based
NCI-N87 [2] = assay: Antiproliferative activity against human NCI-N87 cells at 2 uM after 96 hrs by MTT assay in presence of ferric ion; assay type: functional, cell-based
Bel-7402 [3] = assay: Antiproliferative activity against human Bel7402 cells at 2 uM after 96 hrs by MTT assay in presence of cobalt ion; assay type: functional, cell-based
HepG2 [4] = assay: Antiproliferative activity against human HepG2 cells at 2 uM after 96 hrs by MTT assay in presence of cobalt ion; assay type: functional, cell-based
HeLa [5] = assay: Antiproliferative activity against human HeLa cells at 2 uM after 96 hrs by MTT assay in presence of cobalt ion; assay type: functional, cell-based
Jurkat = assay: Antiproliferative activity against human Jurkat cells at 2 uM after 96 hrs by MTT assay in presence of cobalt ion; assay type: functional, cell-based
A-375 [6] = assay: Antiproliferative activity against human A375 cells at 2 uM after 96 hrs by MTT assay in presence of cobalt ion; assay type: functional, cell-based
NCI-N87 [7] = assay: Antiproliferative activity against human NCI-N87 cells at 2 uM after 96 hrs by MTT assay in presence of cobalt ion; assay type: functional, cell-based
PANC-1 [8] = assay: Antiproliferative activity against human PANC1 cells at 2 uM after 96 hrs by MTT assay in presence of cobalt ion; assay type: functional, cell-based
PANC-1 [9] = assay: Antiproliferative activity against human PANC1 cells at 2 uM after 96 hrs by MTT assay in presence of zinc ion; assay type: functional, cell-based
HepG2 [10] = assay: Antiproliferative activity against human HepG2 cells at 2 uM after 96 hrs by MTT assay in presence of manganese ion; assay type: functional, cell-based
NCI-N87 [11] = assay: Antiproliferative activity against human NCI-N87 cells at 2 uM after 96 hrs by MTT assay in presence of manganese ion; assay type: functional, cell-based
A-375 [12] = assay: Antiproliferative activity against human A375 cells at 2 uM after 96 hrs by MTT assay in presence of 1 uM of ferrous ion; assay type: functional, cell-based
NCI-N87 [13] = assay: Antiproliferative activity against human NCI-N87 cells at 2 uM after 96 hrs by MTT assay in presence of 1 uM of ferrous ion; assay type: functional, cell-based
HT-1080 [14] = assay: Antiproliferative activity against human HT1080 cells at 2 uM after 96 hrs by MTT assay in presence of 1 uM of ferrous ion; assay type: functional, cell-based
HeLa [15] = assay: Antiproliferative activity against human HeLa cells at 2 uM after 96 hrs by MTT assay in presence of 1 uM of ferrous ion; assay type: functional, cell-based
A549 = assay: Antiproliferative activity against human A549 cells at 2 uM after 96 hrs by MTT assay in presence of 1 uM of ferrous ion; assay type: functional, cell-based
HUVEC = assay: Antiproliferative activity against human HUVEC cells after 96 hrs by MTT assay; assay type: cell-based
Bel-7402 [16] = assay: Antiproliferative activity against human Bel7402 cells after 96 hrs by MTT assay; assay type: functional, cell-based; conditions: Bel-7402, 96 h
HeLa [17] = assay: Antiproliferative activity against human HeLa cells after 96 hrs by MTT assay; assay type: functional, cell-based
A-375 [18] = assay: Antiproliferative activity against human A375 cells after 96 hrs by MTT assay; assay type: functional, cell-based; conditions: A-375, 96 h
NCI-N87 [19] = assay: Antiproliferative activity against human NCI-N87 cells after 96 hrs by MTT assay; assay type: functional, cell-based; conditions: NCI-N87, 96 h
PANC-1 [20] = assay: Antiproliferative activity against human PANC1 cells after 96 hrs by MTT assay; assay type: functional, cell-based; conditions: PANC-1, 96 h
[21] = Metal chelating activity of the compound assessed as zinc complex formation in doble-distiled water by UV-vis spectrometry; assay type: functional
Bel-7402 [22] = assay: Antiproliferative activity against human Bel7402 cells at 2 uM after 96 hrs by MTT assay in presence of ferrous ion; assay type: functional, cell-based
HeLa [23] = assay: Antiproliferative activity against human HeLa cells at 2 uM after 96 hrs by MTT assay in presence of ferrous ion; assay type: functional, cell-based
PANC-1 [24] = assay: Antiproliferative activity against human PANC1 cells at 2 uM after 96 hrs by MTT assay in presence of ferrous ion; assay type: functional, cell-based

SMILES: Cc1cc2c(cc(O)c1=O)[C@@]13CCCC(C)(C)[C@@H]1C[C@@H]2OC3 [MILTIPOLONE]
- Activity (HT-1080 [1]): Active
- Activity (NCI-N87 [2]): Active
- Activity (Bel-7402 [3]): Active
- Activity (HepG2 [4]): Active
- Activity (HeLa [5]): Active
- Activity (Jurkat): Active
- Activity (A-375 [6]): Active
- Activity (NCI-N87 [7]): Active
- Activity (PANC-1 [8]): Active
- Activity (PANC-1 [9]): Active
- Activity (HepG2 [10]): Active
- Activity (NCI-N87 [11]): Active
- Activity (A-375 [12]): inactive
- Activity (NCI-N87 [13]): inactive
- Activity (HT-1080 [14]): inactive
- Activity (HeLa [15]): inactive
- Activity (A549): inactive
- IC50 (HUVEC): 20 µM
- IC50 (Bel-7402 [16]): 0.9 µM
- IC50 (HeLa [17]): 1.44 µM
- IC50 (A-375 [18]): 3.5 µM
- IC50 (NCI-N87 [19]): 1.6 µM
- IC50 (PANC-1 [20]): 5.95 µM
- Activity [21]: Active
- Activity (Bel-7402 [22]): inactive
- Activity (HeLa [23]): inactive
- Activity (PANC-1 [24]): inactive
